Residues, ends and D or L forms follow the SMILES beside them. *: point of attachment. Tos = Cc1ccc(S(=O)(=O)*)cc1
melting point [°C] | SMILES
104 to 106 | O=[N+]([O-])c1ccc2c(c1)N(C1CCN(CCc3ccc(F)cc3)CC1)CC2
122 to 124 | CSc1ccc(C(=O)C(=C(N)C(F)(F)F)c2ccc(F)cc2)cc1
108 to 111 | CCCCC1c2ccccc2-c2cc(Br)ccc2N1S(=O)(=O)c1ccc(OC)cc1 (stereo unspecified)
60 to 61 | CC(C)(C)c1ccc(CNC(=O)NCc2ccc(NS(C)(=O)=O)c(Cl)c2)cc1
138 to 139 | CCOc1nn(-c2ccc(C(F)(F)F)cn2)cc1CCCCOc1cc(CCC(=O)O)n(-c2ccccc2)n1
168 to 169 | NC(=O)c1cccc(-c2ccc(F)c3cc(Cc4cc(F)cc(Cl)c4)sc23)c1
85 to 87 | CCOC(=O)C1=C(C)N=C(SCc2ccc(OC)cc2)N(C(=O)OCC)C1c1cccc(C#N)c1 (stereo unspecified)
173 to 175 | Cc1ccc(S(=O)(=O)N[C@@H](CCC(=O)O)C(=O)N[C@@H](Cc2ccc(O)cc2)C(=O)O)cc1 (Tos-Glu-Tyr-OH)
71 to 72 | Cc1ccc(C(C)(C)C)c(O)c1C(=O)Oc1ccccc1
155 to 160 | O=C(O)Cc1c(C(=O)c2ccc(Cl)cc2)[nH]c2cc(C(F)(F)F)ccc12
252 to 255 | COc1ccc(C(=O)Cc2c(Cl)cncc2Cl)c2c(CC(=O)Nc3cccnc3)coc12
37 to 39 | COC(=O)C(C)c1ccc2c(=O)c3ccccc3ccc2c1 (stereo unspecified)
106 to 107 | CCC(=O)N1Cc2ccccc2C2(Cc3ccc(Cl)cc3O2)C1 (stereo unspecified)
135 to 137 | CSC1(C)C(=O)Nc2c(C(=O)c3ccccc3)cccc21 (stereo unspecified)
330 to 332 | O=C1CC(c2ccc(OCc3ccccc3)cc2)=Nc2ccc(N3CCCC3)cc21
> 300 | O=C(O)c1c2c(nc3ccc(F)cc13)-c1ccc(-c3ccccc3F)cc1CC2
131 to 133 | N=c1[nH]c2ccc(Cl)cc2c2nc(-c3ccco3)nn12
196 | CC(C)c1ccc(S(=O)(=O)n2c(Cc3ccc(C(=O)O)c(F)c3)cc3cc(Cl)ccc32)cc1
166 to 168 | Cc1ccccc1C(=O)N1CCC(=NO)c2ccc(Cl)cc21
177 | O=C(NCc1ccc(OC(F)(F)F)cc1)Nc1cccc2[nH]ccc12
192 to 194 | CC(C)COc1ccc(-n2cc(C(=O)O)cn2)cc1C#N
132 to 135 | CC(C)(C(=O)Nc1cc(Cl)cc(Cl)c1)N1COC(C#N)=C(c2ccccc2)C1=O
88 to 89 | NC(=O)N1CCC(=O)C(C(c2ccccc2)c2ccccc2)C1 (stereo unspecified)
159 to 160 | Cc1ccccc1C(=O)Nn1cc(-c2ccccc2)nc1S
228 to 230 | CCNC(=O)COC1CCN(Cc2cnc3cc(NC(=O)c4ccc(-c5ccc(F)cc5)cc4)ccc3c2)CC1

melting point [°C] | SMILES
120 to 125 | O=C1N(c2ccccc2Br)Cc2cnc(Nc3ccccc3)nc2N1c1cccc2ccccc12
120 | COC(=O)NC(=O)C(Cc1ccc(OCCc2nc(-c3ccccc3)oc2C)cc1)C(=O)OC (stereo unspecified)
159 to 160 | CC(C)c1nc(-c2ccccc2)c(C(C)C)c(-c2ccc(F)cc2)c1C=O
78 to 79 | COC(=O)Cc1ccc(OCC(C)NCC(O)c2ccc(Cl)cc2)cc1 (stereo unspecified)
167 to 169 | FC(F)(F)c1cnc2nc1Nc1cccc(c1)/C=C\c1cccc(c1)N2
130 | CCCCc1nc(Cl)c(CC(=O)OCC)c(Cc2ccc(C(=O)O)cc2)n1
236 | O=C(Nc1cccc(S(=O)(=O)NCCc2ccncc2)c1)c1cnn2c(C(F)(F)F)cc(-c3ccc(C(F)(F)F)cc3)nc12
223 to 225 | O=c1[nH]c(=Cc2ccc(OCc3ccccc3)cn2)c(=O)[nH]c1=CCc1ccccc1
121 to 122 | COc1cc(C)ccc1OCCCN1CCC(C(O)(c2ccc(F)cc2)c2ccc(F)cc2)CC1
226 | CCOC(=O)c1cn(C)c2cnc3cc(F)c(N4CCN(c5cccc(OC)c5)C(C)C4)cc3c2c1=O (stereo unspecified)
120 to 122 | CC(C)(C)OC(=O)N1CCC(c2nc(-c3ccc(-c4ccccc4)cc3)c[nH]2)CC1
182 to 186 | Cc1c(CCNC(=O)OC(C)(C)C)c2cc(S(=O)(=O)c3cc(F)cc(F)c3)ccc2n1C
146 | CC(C)c1ccc(C2NCCc3c2[nH]c2ccccc32)cc1 (stereo unspecified)
160 to 161 | CCOC(=O)c1cc(-c2ccc(Cl)cc2)nc2ccnn12
105 to 108 | CCC(Sc1ccc(CCC(=O)O)c(C)c1)c1ccc2nc(-c3ccc(C(F)(F)F)cc3)sc2c1 (stereo unspecified)
257 to 258 | Cn1nccc1-c1ccc(-c2cnc3[nH]cc(C(=O)C(C)(C)C)c3n2)cc1
266 | CN1CCN(c2cc3c(cc2F)c(=O)c(C(=O)O)cn3Cc2ccccc2)CC1
92 to 94 | CCOC(=O)c1ccc(/C=C(\CCCc2ccc(OC)cc2)Cn2ccnc2)cc1
62 to 64 | CCOC(=O)c1cc(=O)c2ccc(C)cc2o1
208 | CN(C)c1ccc(S(=O)(=O)n2c(CCCC(=O)O)cc3nc(Cl)ccc32)c(Cl)c1
232 to 233 | Cc1nc(-n2ccc(OCc3ccccc3)cc2=O)n(C)c1C(=O)NCc1ccccc1
100 to 102 | Cc1ccc(-c2cc(OCC3CO3)c3ccccc3n2)cc1 (racemic)
245 to 248 | NC(=O)c1cc(=O)c(-c2ccccc2)co1
146 to 148 | O=C(c1ccccc1)c1nc(Br)ccc1[N+](=O)[O-]

Second part, the molecule before the results:

SMILES | melting point [°C]
CN1CCC(OC2c3ccccc3CCn3c2nc(-c2ccc(C(=O)OC(C)(C)C)cc2)c3C#N)CC1 (stereo unspecified) | 95
CNC(=N)NC(=O)c1nc(Cl)c(NC2CCCC2)nc1N | 184 to 187
c1ccc(OCCSCc2nnc(-c3ccc(OCCCN4CCSCC4)cc3)o2)cc1 | 85
O=C(CCCCCCC(=O)N1CCN(c2cccc(F)c2)CC1)NO | 149 to 150
CCOC(=O)CCCCCCC1C(=O)NC(=O)N1C1(O)CCCCC1 (stereo unspecified) | 62 to 63
CCCc1nc2nc3cc(Cl)ccc3nc2[nH]1 | 280 to 282
CC(=O)Oc1c(C)ccc2c1N=CC1CCCN1C2=O (stereo unspecified) | 142 to 145
CC(C)N1CC=C(c2c[nH]c3ccccc23)CC1 | 178
COC(=O)c1sc2c(c1OC(C)C)CN(C(=O)OC(C)(C)C)CC2 | 76 to 81
C#Cc1ncn2c1CN(C)C(=O)c1cc(F)ccc1-2 | 207 to 208
CCCCNC(=O)NS(=O)(=O)c1ccccc1-c1nn(C)c(=O)o1 | 110 to 115
CCOC(=O)C1C(=O)Cc2ccccc21 (stereo unspecified) | 58 to 61
CC1(C)CC(OC(=O)CCCCCCCCC(=O)OC2CC(C)(C)N(OC3CCCCC3)C(C)(C)C2)CC(C)(C)N1OC1CCCCC1 | 56 to 59
CCNC(=O)n1nc(Oc2c(F)cc(C(F)(F)F)cc2F)cc1C | 102 to 104
COC(=O)c1ccc(Br)c(C=O)c1 | 71 to 74
CC(=O)NC[C@H]1CN(c2ccc(C3=CCN(c4nnc(C)s4)CC3)c(F)c2)C(=O)O1 | 193 to 195
CNC(=O)ON=C1COCCS1 | 105 to 106
CC1(C)CC(OC(=O)c2ccccc2)CC(C)(C)N1N=Nc1ccccc1 | 89 to 91
FC(F)(F)c1cc(CCC2OCCNC2c2ccccc2)cc(C(F)(F)F)c1 (stereo unspecified) | 114 to 116
CCCCCCC1CC(c2ccc(CCCC)cc2)C(=O)O1 (stereo unspecified) | 37.7
COC(=O)/C=C/c1cc(Br)cs1 | 63 to 67
OC(Cn1ncc2c(Br)ncnc21)c1ccccc1 (stereo unspecified) | 146 to 147
CC(=O)OC1CSC(Oc2ccc3nc(C)sc3c2)C(OC(C)=O)C1OC(C)=O (stereo unspecified) | 160
CNc1ncn(C)c1C(=O)NCc1ccccc1 | 110 to 111

SMILES | melting point [°C]
CN(C)CCCC(C(N)=O)c1ccccc1-c1ccccc1 (stereo unspecified) | 108 to 110
C(=Cc1ccc(-c2cnc(CSCCOc3ccccc3)o2)cc1)CN1CCCC1 | 73 to 75
O=C(O)CNC(=O)CSCCCCc1ccc2c(c1)OCO2 | 95 to 96
CCCCCCc1cc2c(s1)-n1c(C)nnc1CN=C2c1cc(OC)c(OC)c(OC)c1 | 111 to 113
O=C(Nc1ccc(OC(F)(F)F)cc1)NC1CCN(C(=O)CN2CCN(Cc3ccccc3)CC2)CC1 | 178 to 183
O=C(NCC12CC3CC(CC(C3)C1)C2)c1cc(-c2ncccc2C(=O)O)ccc1Cl | 169 to 172
CCN1C(=O)CCCc2c1ccc(Nc1ncc(Cl)c(N[C@@H]3CCC[C@H]3NS(C)(=O)=O)n1)c2OC (relative stereo) | 141
O=C(O)c1ccc(C(F)(F)F)nc1C=CCCl | 137 to 138
CC(=O)OC1CSC(Oc2cccnc2-c2nnn[nH]2)C(OC(C)=O)C1OC(C)=O (stereo unspecified) | 119 to 127
CC(C)(C)OC(=O)Nc1cc(N2CCOCC2)cc(C(F)(F)F)c1 | 146 to 148
C=CCOc1cc(-c2cc(=O)c3c(O)cc(O)cc3o2)ccc1OC | 219
CN1CC(=O)Nc2ccsc2C1=O | 270 to 272
COc1cc(Cc2cnc(N)nc2N)c2c(c1OC)OC(C)CC2O (stereo unspecified) | 201 to 203
CCC(=O)Nc1c(C)c(C)c2c(c1C)C(c1ccc(C(C)C)cc1)CO2 (stereo unspecified) | 164 to 165
CN1C(=O)CN=C(c2ccccc2F)c2c1ccc(N)c2Cl | 126
COc1cc2c(c(C(C)(C)C)c1)OC(=O)C2=C1C(=O)Nc2c(Br)cc(Br)cc21 | 303 to 314
CP1(=O)OCc2ccccc21 (stereo unspecified) | 70 to 72
COC1CN2[C@H]3CC[C@@H]2[C@@H]1[C@@H](c1ccc(Cl)c(Cl)c1)C3 (stereo partly specified) | 139 to 141
O=C(CCn1cnc2c(=O)[nH]cnc21)NC1CCSC1=O (stereo unspecified) | 228 to 230
Nc1nc(NCC2CC2)c2ncn(C3C=CC(CO)C3)c2n1 (stereo unspecified) | 130 to 131
CC(C)(C)c1cc(-c2nc3n(c2SC#N)CCS3)cc(C(C)(C)C)c1O | 178 to 179
COCCOCCN1C(=O)C2(COc3cc4c(cc32)OCCO4)c2c(OC)ccc(OC)c21 (stereo unspecified) | 109 to 110
CC(=O)Oc1c(C(C)(C)C)cc(O)c(C=O)c1C(C)(C)C | 79

— a melting point compilation (Tetko et al.; mined from patent text by program, amines drawn as free bases though some values may be those of a salt)
